Values quoted from earlier work in patent US11154586B2, “Treating sexual dysfunction” (Olive Therapeutics, LLC, priority 2016, dated 2021).

How the values were obtained:
[1] = intranasal, men or couples, single agent

CC[C@H](C)[C@@H]1NC(=O)[C@H](Cc2ccc(O)cc2)NC(=O)[C@@H](N)CSSC[C@@H](C(=O)N2CCC[C@H]2C(=O)N[C@@H](CC(C)C)C(=O)NCC(N)=O)NC(=O)[C@H](CC(N)=O)NC(=O)[C@H](CCC(N)=O)NC1=O [oxytocin]
Effect on biological measures of sexual functioning [1]: does not alter biological measures of sexual functioning
Effect on sexual function, Case 1 (person, 2 hours after intranasal 16 IU, on progesterone only pill, repeated 2 days later): increased sexual desire, stronger uterine contractions during orgasm, and greater satisfaction
Effect on sexual function, Case 2 (person, intranasal, off-label for social anxiety, apparently also on lisdexamfetamine): broad spectrum enhancement of the patient's sexual function
Effect on anorgasmia, Case 3 (person, intranasal, earlier dopamine agonist and growth hormone): sustained restoration of their ability to achieve orgasm
Effect on sexual function, Case 1, third administration (same person, 2 weeks later, after switch to barrier method): did not produce the same sexual enhancement
